Data on one compound can be found in article PMC6286348, “Inhibitor binding mode and allosteric regulation of Na^+-glucose symporters” (Nature Communications, 2018).

Substitutions are numbered along the chain they refer to.

One assay has as its target T1, hSGLT1 T395A (Homo sapiens, UniProt P13866, T395A).
T1 construct: expressed in transfected cells; host or cells: Xenopus laevis oocytes injected with cRNA
T1 sequence (P13866 1-664 T395A): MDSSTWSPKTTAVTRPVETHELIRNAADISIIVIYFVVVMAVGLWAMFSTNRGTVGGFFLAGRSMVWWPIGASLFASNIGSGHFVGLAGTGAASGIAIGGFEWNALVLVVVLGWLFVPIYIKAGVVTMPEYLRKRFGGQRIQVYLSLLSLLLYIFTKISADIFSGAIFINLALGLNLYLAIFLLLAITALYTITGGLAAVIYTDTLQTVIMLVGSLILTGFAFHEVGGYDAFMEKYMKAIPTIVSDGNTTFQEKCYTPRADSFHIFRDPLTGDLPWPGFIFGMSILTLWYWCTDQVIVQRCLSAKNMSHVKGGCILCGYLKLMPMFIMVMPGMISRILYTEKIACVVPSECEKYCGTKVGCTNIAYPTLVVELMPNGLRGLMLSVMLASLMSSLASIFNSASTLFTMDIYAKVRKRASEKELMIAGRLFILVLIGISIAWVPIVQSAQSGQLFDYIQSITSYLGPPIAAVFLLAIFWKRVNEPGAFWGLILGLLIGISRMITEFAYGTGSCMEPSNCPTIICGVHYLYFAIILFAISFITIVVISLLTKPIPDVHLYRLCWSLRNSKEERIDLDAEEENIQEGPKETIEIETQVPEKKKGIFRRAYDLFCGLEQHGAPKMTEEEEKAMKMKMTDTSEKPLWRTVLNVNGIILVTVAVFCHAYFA
The experiment in a line: SGLT current measurement in oocytes, hSGLT1 T395A. In kind it is cell-based. Conditions: 22 °C. The protocol: (§1) Xenopus laevis (Nasco) oocytes (V–VI) were prepared as previously described[20] and injected with 50 nl of cRNA (1 μg/μl). […] Briefly, oocytes were incubated for 30 min in the presence of 50 μM αMDG (5 μM [^14C]αMDG) in a buffer containing (in mM) 100 NaCl, 2 KCl, 1 MgCl2, 1 CaCl2, and 10 N-(2-hydroxyethyl)piperazine-N′-(2-ethanesulfonic acid) (HEPES)/Tris (pH 7.5). After incubation, oocytes were rinsed thoroughly with ice-cold buffer containing (mM) 100 choline Cl^–, 2 KCl, 1 MgCl2, 1 CaCl2, and 10 HEPES/Tris (pH 7.5), individually lysed with 5% sodium dodecyl sulfate, and assayed for radioactivity.
Injected oocytes were incubated at 18 °C, and after 3–4 days, two electrode voltage clamp experiments were performed as previously described. Briefly, SGLT inward glucose currents were measured as a function of the external Na^+ (0–100 mM NaCl), sugar (0–100 mM αMDG), and inhibitors (0.001–100 μM). Steady-state and hSGLT1 capacitive currents were recorded using voltage steps from a holding voltage, Vh of −60 mV, to voltages in the range of −180 to +50 mV in 20 mV increments. The apparent affinity of αMDG, K0.5, was estimated from plots of the inward current as a function of the external αMDG concentration. […] The Na^+-to-αMDG stoichiometry was determined from the reversal potential measurements using the Gibbs free energy as previously described. […]

The target of a further assay is T2, hSGLT2 A395T (Homo sapiens, UniProt P31639, A395T).
T2 construct: expressed in transfected cells; host or cells: Xenopus laevis oocytes injected with hSGLT2 A395T cRNA and MAP17 cRNA
Nature of the assay: cell-based. As to conditions: poor expression; n = 4 oocytes. The protocol:
as §1
Injected oocytes were incubated at 18 °C, and after 3–4 days, two electrode voltage clamp experiments were performed as previously described. Briefly, SGLT inward glucose currents were measured as a function of the external Na^+ (0–100 mM NaCl), sugar (0–100 mM αMDG), and inhibitors (0.001–100 μM). Steady-state and hSGLT1 capacitive currents were recorded using voltage steps from a holding voltage, Vh of −60 mV, to voltages in the range of −180 to +50 mV in 20 mV increments. The apparent affinity of αMDG, K0.5, was estimated from plots of the inward current as a function of the external αMDG concentration. Under our experimental conditions, K0.5 is a close approximation of the αMDG binding constant to the Na^+-bound outward conformation of SGLT. The apparent affinity for Na^+, K0.5, was estimated from plots of the αMDG inward current as a function of external Na^+ concentration. For hSGLT1 the interpretation of K0.5 is more complex owing to the presence of two Na^+ binding sites. In this case, the K0.5 is a lumped coefficient for Na^+ binding to the two sites in the outward-facing hSGLT1 conformation. […] The Na^+-to-αMDG stoichiometry was determined from the reversal potential measurements using the Gibbs free energy as previously described. The stoichiometry determinations were reinforced by estimates of αMDG and Na^+ Hill coefficients, and in some cases, by measurement of ^22Na and [^14C]αMDG uptakes under voltage clamp, [21].

Another assay concerns the target T3, hSGLT1 T287C (Homo sapiens, UniProt P13866, T287C).
T3 construct: expressed in transfected cells; host or cells: Xenopus laevis oocytes injected with cRNA
T3 sequence (P13866 1-664 T287C): T1 sequence (P13866 1-664 T395A) with T287C, A395T
Set-up: method as in PMID 29087341. Conditions: oocytes, 22 °C; cited from earlier work.

T2 sequence (Q13113 whole entry): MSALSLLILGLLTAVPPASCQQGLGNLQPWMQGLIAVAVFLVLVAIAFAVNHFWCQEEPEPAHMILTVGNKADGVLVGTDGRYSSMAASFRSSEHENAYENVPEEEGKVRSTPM
T2 sequence (P31639 whole entry A395T): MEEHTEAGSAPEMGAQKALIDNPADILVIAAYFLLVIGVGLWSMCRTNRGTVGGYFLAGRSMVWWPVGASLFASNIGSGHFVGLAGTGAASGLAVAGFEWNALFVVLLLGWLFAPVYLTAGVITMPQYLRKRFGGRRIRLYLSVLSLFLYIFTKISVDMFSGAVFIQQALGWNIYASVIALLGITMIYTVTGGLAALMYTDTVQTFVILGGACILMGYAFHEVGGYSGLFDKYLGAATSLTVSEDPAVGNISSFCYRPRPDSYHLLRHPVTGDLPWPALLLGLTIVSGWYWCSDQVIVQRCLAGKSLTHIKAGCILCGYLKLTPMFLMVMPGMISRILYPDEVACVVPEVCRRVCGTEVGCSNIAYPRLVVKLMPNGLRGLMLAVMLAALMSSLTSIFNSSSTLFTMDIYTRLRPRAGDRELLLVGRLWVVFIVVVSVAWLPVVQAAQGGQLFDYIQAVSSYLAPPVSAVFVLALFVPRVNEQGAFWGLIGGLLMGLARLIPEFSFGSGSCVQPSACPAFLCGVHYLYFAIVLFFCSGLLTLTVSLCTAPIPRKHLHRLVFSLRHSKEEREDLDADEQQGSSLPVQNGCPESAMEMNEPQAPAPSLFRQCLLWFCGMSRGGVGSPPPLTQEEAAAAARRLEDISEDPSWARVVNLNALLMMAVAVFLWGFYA

As for `[Na+]` [Na^+], the “K0.5 Na^+” value at hSGLT1 T395A is 104 ± 50 mM; at hSGLT2 A395T, 30 ± 10 mM; on hSGLT1 T287C it was 6 ± 0.2[19] mM.
